Experimental data as given in US5892029A, “3-hydroxy-2(1H)-pyridinone chelating agents” (priority 1997, dated 1999).
Where two headings read alike, the source gives them in different places.

Assays:
[1] = 30 μmol/kg i.p. at 1 h; reported previously (footnote e); cited from earlier work
[2] = format: in vivo, mice; conditions: for no. of survivors / body weight / kidney weight / plasma urea N: protocol IA: 100 μmol/kg × 2 daily
Experimental: The test of acute toxicity of these novel ligands was carried out as follows. […] The ligand was dissolved in 0.5 to 1.0 ml of saline at pH 7 to 8. After a period of observation, the mice were killed, selected tissues were removed and fixed for histopathological examination,and unusual findings at autopsy were recorded.

[3] = 6 d, two moribund mice autopsied on d 3

For `O=C(NCCCN(CCCCN(CCCNC(=O)c1cccc(=O)n1O)C(=O)c1cccc(=O)n1O)C(=O)c1cccc(=O)n1O)c1cccc(=O)n1O` [3,4,3-LI(1,2-HOPO)], the “238Pu excreta: feces and GI contents” value [1] is listed as 57% of injected ^238 Pu, the “238Pu excreta: urine 0-24 h” value [1] is listed as 23% of injected ^238 Pu and the “238Pu in kidneys at 24 h” value [1] is listed as 0.2% of injected ^238 Pu. The “238Pu in liver at 24 h” value [1] was 8.9 ± 1.7% of injected ^238 Pu, the “238Pu in skeleton at 24 h” value [1] was 7.5 ± 0.7% of injected ^238 Pu and the “238Pu in soft tissue at 24 h” value [1] was 1.6 ± 0.6% of injected ^238 Pu. For the same compound, the “238Pu in whole body at 24 h” value [1] was 18 ± 1.7% of injected ^238 Pu.

In the case of `O=C(NCCCCN(CCCNC(=O)c1cccc(=O)n1O)C(=O)c1cccc(=O)n1O)c1cccc(=O)n1O` [3,4-LI(1,2-HOPO)], the “238Pu excreta: feces and GI contents” value [1] is listed as 58% of injected ^238 Pu, the “238Pu excreta: urine 0-24 h” value [1] is listed as 7.9% of injected ^238 Pu and the “238Pu in kidneys at 24 h” value [1] is listed as 0.6% of injected ^238 Pu. For the same compound, the “238Pu in liver at 24 h” value [1] was 18 ± 4.8% of injected ^238 Pu, the “238Pu in skeleton at 24 h” value [1] was 9.9 ± 3.6% of injected ^238 Pu and the “238Pu in soft tissue at 24 h” value [1] was 5.8 ± 1.3% of injected ^238 Pu. The “238Pu in whole body at 24 h” value [1] was 34 ± 9.2% of injected ^238 Pu.

For `Cn1ccc(C(=O)NCCCNC(=O)c2ccn(C)c(=O)c2O)c(O)c1=O` [3-LI-Me-3,2-HOPO, 1,3-bis[(3-hydroxy-1-methyl-2-oxo-1,2-dihydropyridin-4-yl)carboxamido] propane], the “toxicity / mortality (in words)” value ([2]; mouse, in vivo) was “all mice were dead by d 3”, the no. of survivors ([2]; 6 d, of 10 mice) was 0 and the body weight [2, 3] was 89 ± 4 percent control. For the same compound, the kidney weight [2, 3] was 222 ± 29 percent control and the “plasma urea N” value [2, 3] was > 1800 percent control.

With `Cn1ccc(C(=O)NCCCCCCNC(=O)c2ccn(C)c(=O)c2O)c(O)c1=O` [6-LI-Me-3,2-HOPO, 1,6-bis[(3-hydroxy-1-methyl-2-oxo-1,2-dihydropyridin-4-yl)carboxamido]hexane] the body weight ([2]; 3 d, mean ± SD) was 83 ± 3 percent control, the kidney weight ([2]; 3 d, mean ± SD) was 132 ± 11 percent control and the “plasma urea N” value ([2]; 3 d, mean ± SD) was 343 ± 140 percent control. The no. of survivors ([2]; 3 d, of 5 mice) was 5, the body weight ([2]; 11 d, mean ± SD) was 101 ± 5 percent control and the kidney weight ([2]; 11 d, mean ± SD) was 112 ± 13 percent control. The “plasma urea N” value ([2]; 11 d, mean ± SD) was 92 ± 6 percent control and the no. of survivors ([2]; 11 d, of 5 mice) was 3.

For `CC(=O)N(O)CCCCCNC(=O)CCC(=O)N(O)CCCCCNC(=O)CCC(=O)N(O)CCCCCN` [DFO, desferrioxamine B], the “238Pu excreta: feces and GI contents” value [1] is given as 15.1% of injected ^238 Pu, the “238Pu excreta: urine 0-24 h” value [1] is given as 38% of injected ^238 Pu and the “238Pu in kidneys at 24 h” value [1] is given as 1.8% of injected ^238 Pu. For the same compound, the “238Pu in liver at 24 h” value [1] was 19 ± 13% of injected ^238 Pu, the “238Pu in skeleton at 24 h” value [1] was 20 ± 11% of injected ^238 Pu and the “238Pu in soft tissue at 24 h” value [1] was 4.5 ± 1.4% of injected ^238 Pu. The “238Pu in whole body at 24 h” value [1] was 45 ± 2.5% of injected ^238 Pu.
